Target: T1, CK1α (Homo sapiens, UniProt P48729+Q96SW2)
T1 construct: expressed in transfected cells
Experiment: CK1α ePL degradation assay in MDS-L cells
Type: cell-based
Details: MDS-L cells expressing ePL-tagged CK1α; for DC50: concentration giving 50% CK1α degradation vs DMSO control; for Y: lowest measured CK1α level normalized to DMSO control
Procedure, shortened: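 MDS-L cells treated with compound in a 10-point, 3-fold series from 10 μM to 0.0005 μM at 37° C, 5% CO2 for the indicated times; CK1α measured by InCELL Hunter enzyme-fragment luminescence. Levels normalized to DMSO as percent of control; lowest level reached taken as Y value.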

T1 sequence (P48729 whole entry): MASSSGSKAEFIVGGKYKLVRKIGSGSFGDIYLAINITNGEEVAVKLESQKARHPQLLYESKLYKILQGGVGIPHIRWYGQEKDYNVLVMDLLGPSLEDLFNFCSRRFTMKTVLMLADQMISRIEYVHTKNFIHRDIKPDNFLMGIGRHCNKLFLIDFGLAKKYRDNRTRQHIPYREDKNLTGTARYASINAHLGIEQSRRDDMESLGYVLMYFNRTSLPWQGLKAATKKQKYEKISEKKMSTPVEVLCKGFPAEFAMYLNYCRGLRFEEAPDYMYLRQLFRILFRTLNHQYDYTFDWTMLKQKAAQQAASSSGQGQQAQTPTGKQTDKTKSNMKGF
T1 sequence (Q96SW2 whole entry): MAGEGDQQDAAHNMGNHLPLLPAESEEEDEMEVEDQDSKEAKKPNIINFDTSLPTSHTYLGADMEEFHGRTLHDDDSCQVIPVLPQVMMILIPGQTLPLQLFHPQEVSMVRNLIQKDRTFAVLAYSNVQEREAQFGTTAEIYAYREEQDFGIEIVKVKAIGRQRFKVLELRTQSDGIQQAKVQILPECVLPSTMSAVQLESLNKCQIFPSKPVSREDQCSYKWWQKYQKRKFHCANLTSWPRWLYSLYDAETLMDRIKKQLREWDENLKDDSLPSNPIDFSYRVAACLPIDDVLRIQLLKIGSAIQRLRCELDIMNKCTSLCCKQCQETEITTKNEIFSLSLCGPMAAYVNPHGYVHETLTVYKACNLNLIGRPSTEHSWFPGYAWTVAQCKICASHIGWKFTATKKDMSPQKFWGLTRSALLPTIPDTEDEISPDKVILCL
T1 sequence (Q16531 whole entry partner): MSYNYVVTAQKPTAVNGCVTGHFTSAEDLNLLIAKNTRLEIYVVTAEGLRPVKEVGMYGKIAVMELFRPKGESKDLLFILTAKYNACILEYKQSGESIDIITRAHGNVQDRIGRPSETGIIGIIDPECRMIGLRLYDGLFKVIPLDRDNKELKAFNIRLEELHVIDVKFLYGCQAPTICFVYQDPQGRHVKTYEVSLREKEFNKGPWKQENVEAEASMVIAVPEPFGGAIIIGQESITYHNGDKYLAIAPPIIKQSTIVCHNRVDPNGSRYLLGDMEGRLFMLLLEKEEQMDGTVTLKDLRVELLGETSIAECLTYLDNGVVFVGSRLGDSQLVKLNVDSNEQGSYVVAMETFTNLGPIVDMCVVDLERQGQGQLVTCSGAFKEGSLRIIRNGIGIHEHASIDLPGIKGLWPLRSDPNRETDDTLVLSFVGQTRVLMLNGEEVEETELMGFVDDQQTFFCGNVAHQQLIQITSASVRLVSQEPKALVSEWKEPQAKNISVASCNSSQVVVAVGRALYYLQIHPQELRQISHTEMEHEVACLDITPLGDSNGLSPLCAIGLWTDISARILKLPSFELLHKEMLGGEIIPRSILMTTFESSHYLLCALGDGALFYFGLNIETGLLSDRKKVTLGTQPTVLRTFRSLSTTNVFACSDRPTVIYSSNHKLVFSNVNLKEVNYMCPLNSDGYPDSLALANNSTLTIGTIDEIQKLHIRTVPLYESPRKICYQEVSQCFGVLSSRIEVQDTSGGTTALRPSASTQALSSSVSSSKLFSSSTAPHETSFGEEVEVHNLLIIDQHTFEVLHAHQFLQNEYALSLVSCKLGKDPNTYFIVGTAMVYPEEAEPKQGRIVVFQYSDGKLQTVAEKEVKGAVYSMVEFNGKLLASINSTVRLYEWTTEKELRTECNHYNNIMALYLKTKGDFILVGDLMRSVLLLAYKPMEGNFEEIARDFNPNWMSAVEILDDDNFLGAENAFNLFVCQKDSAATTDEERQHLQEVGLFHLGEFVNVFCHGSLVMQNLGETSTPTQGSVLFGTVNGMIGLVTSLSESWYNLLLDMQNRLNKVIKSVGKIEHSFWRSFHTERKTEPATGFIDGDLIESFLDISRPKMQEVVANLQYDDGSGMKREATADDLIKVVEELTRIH

| Structure (SMILES) | DC50 [µM] | Y |
| --- | --- | --- |
| O=C1CCC(N2Cc3cc(C(=O)N[C@H](c4ccc(CN5CCC5)cc4)C(F)(F)F)ccc3C2=O)C(=O)N1 (stereo partly drawn) [Example 189, N-((R)-1-(4-(azetidin-1-ylmethyl)phenyl)-2,2,2-trifluoroethyl)-2-(2,6-dioxopiperidin-3-yl)-1-oxoisoindoline-5-carboxamide] | < 0.1 | * (a Y value (shown as *) of 0<Y≤20%) |
| CC(C)([C@@H](NC(=O)c1ccc2c(c1)CN(C1CCC(=O)NC1=O)C2=O)C(F)(F)F)C(F)(F)F (stereo partly drawn) [Example 68, 2-(2,6-dioxopiperidin-3-yl)-N-((R)-1,1,1,4,4,4-hexafluoro-3,3-dimethylbutan-2-yl)-1-oxoisoindoline-5-carboxamide] | 0.1 to 0.5 | ** (a Y value (shown as**) of 20%<Y≤35%) |
| O=C1CCC(N2Cc3cc(C(=O)N[C@H](c4cccc(Cl)c4)C(F)(F)F)ccc3C2=O)C(=O)N1 (stereo partly drawn) [Example 43, N-((R)-1-(3-chlorophenyl)-2,2,2-trifluoroethyl)-2-(2,6-dioxopiperidin-3-yl)-1-oxoisoindoline-5-carboxamide] | < 0.1 | * (a Y value (shown as *) of 0<Y≤20%) |
| O=C1CCC(N2Cc3cc(C(=O)N[C@H](c4cccc(F)c4Cl)C(F)(F)F)ccc3C2=O)C(=O)N1 (stereo partly drawn) [Example 152, N-((R)-1-(2-chloro-3-fluorophenyl)-2,2,2-trifluoroethyl)-2-(2,6-dioxopiperidin-3-yl)-1-oxoisoindoline-5-carboxamide] | < 0.1 | * (a Y value (shown as *) of 0<Y≤20%) |
| O=C1CCC(N2Cc3cc(C(=O)N[C@H](C4CCC(C(F)(F)F)CC4)C(F)(F)F)ccc3C2=O)C(=O)N1 (stereo partly drawn) [Example 71, 2-(2,6-dioxopiperidin-3-yl)-1-oxo-N-((1R)-2,2,2-trifluoro-1-(4-(trifluoromethyl)cyclohexyl)ethyl)isoindoline-5-carboxamide] | < 0.1 | * (a Y value (shown as *) of 0<Y≤20%) |
| CN1CCN(Cc2ccc([C@@H](NC(=O)c3ccc4c(c3)CN(C3CCC(=O)NC3=O)C4=O)C(F)(F)F)cc2)CC1 (stereo partly drawn) [Example 185, 2-(2,6-dioxopiperidin-3-yl)-1-oxo-N-((R)-2,2,2-trifluoro-1-(4-((4-methylpiperazin-1-yl)methyl)phenyl)ethyl)isoindoline-5-carboxamide] | 0.1 to 0.5 | * (a Y value (shown as *) of 0<Y≤20%) |
| O=C1CCC(N2Cc3cc(C(=O)N[C@H](c4cccc(Oc5ccccc5)c4)C(F)(F)F)ccc3C2=O)C(=O)N1 (stereo partly drawn) [Example 158, 2-(2,6-dioxopiperidin-3-yl)-1-oxo-N-((R)-2,2,2-trifluoro-1-(3-phenoxyphenyl)ethyl)isoindoline-5-carboxamide] | < 0.1 | * (a Y value (shown as *) of 0<Y≤20%) |
| O=C1CCC(N2Cc3cc(C(=O)N[C@H](c4ccccc4N4CCOCC4)C(F)(F)F)ccc3C2=O)C(=O)N1 (stereo partly drawn) [Example 205, 2-(2,6-dioxopiperidin-3-yl)-1-oxo-N-((R)-2,2,2-trifluoro-1-(2-morpholinophenyl)ethyl)isoindoline-5-carboxamide] | < 0.1 | * (a Y value (shown as *) of 0<Y≤20%) |
| O=C1CCC(N2Cc3cc(C(=O)N[C@H](c4ccccc4)C(F)(F)F)c(F)cc3C2=O)C(=O)N1 (stereo partly drawn) [Example 84, 2-(2,6-dioxopiperidin-3-yl)-6-fluoro-1-oxo-N-((R)-2,2,2-trifluoro-1-phenylethyl)isoindoline-5-carboxamide] | 0.1 to 0.5 | ** (a Y value (shown as**) of 20%<Y≤35%) |
| O=C1CCC(N2Cc3cc(C(=O)N[C@H](c4ccc(Cl)cc4F)C(F)(F)F)ccc3C2=O)C(=O)N1 (stereo partly drawn) [Example 79, N-((R)-1-(4-chloro-2-fluorophenyl)-2,2,2-trifluoroethyl)-2-(2,6-dioxopiperidin-3-yl)-1-oxoisoindoline-5-carboxamide] | < 0.1 | * (a Y value (shown as *) of 0<Y≤20%) |
| CC(C)[C@H](NC(=O)c1ccc2c(c1)CN(C1CCC(=O)NC1=O)C2=O)c1ccccc1F (stereo partly drawn) [Example 167, 2-(2,6-dioxopiperidin-3-yl)-N-((S)-1-(2-fluorophenyl)-2-methylpropyl)-1-oxoisoindoline-5-carboxamide] | < 0.1 | * (a Y value (shown as *) of 0<Y≤20%) |
| O=C1CCC(N2Cc3cc(C(=O)N[C@H](c4cccnc4)C(F)(F)F)ccc3C2=O)C(=O)N1 (stereo partly drawn) [Example 54, 2-(2,6-dioxopiperidin-3-yl)-1-oxo-N-((R)-2,2,2-trifluoro-1-(pyridin-3-yl)ethyl)isoindoline-5-carboxamide] | 0.1 to 0.5 | ** (a Y value (shown as**) of 20%<Y≤35%) |
| O=C1CCC(N2Cc3cc(C(=O)N[C@H](c4ccc(O)cc4)C(F)(F)F)ccc3C2=O)C(=O)N1 (stereo partly drawn) [Example 101, 2-(2,6-dioxopiperidin-3-yl)-1-oxo-N-((R)-2,2,2-trifluoro-1-(4-hydroxyphenyl)ethyl)isoindoline-5-carboxamide] | < 0.1 | * (a Y value (shown as *) of 0<Y≤20%) |
| O=C1CCC(N2Cc3cc(C(=O)N[C@H](c4ccc(F)cc4F)C(F)(F)F)ccc3C2=O)C(=O)N1 (stereo partly drawn) [Example 80, N-((R)-1-(2,4-difluorophenyl)-2,2,2-trifluoroethyl)-2-(2,6-dioxopiperidin-3-yl)-1-oxoisoindoline-5-carboxamide] | < 0.1 | * (a Y value (shown as *) of 0<Y≤20%) |
| CN1CCC([C@@H](NC(=O)c2ccc3c(c2)CN(C2CCC(=O)NC2=O)C3=O)C(F)(F)F)CC1 (stereo partly drawn) [Example 81, 2-(2,6-dioxopiperidin-3-yl)-1-oxo-N-((R)-2,2,2-trifluoro-1-(1-methylpiperidin-4-yl)ethyl)isoindoline-5-carboxamide] | 0.5 to 1 | ** (a Y value (shown as**) of 20%<Y≤35%) |
| O=C1CCC(N2Cc3cc(C(=O)N[C@H](c4cccc(CN5CCOCC5)c4)C(F)(F)F)ccc3C2=O)C(=O)N1 (stereo partly drawn) [Example 140, 2-(2,6-dioxopiperidin-3-yl)-1-oxo-N-((R)-2,2,2-trifluoro-1-(3-(morpholinomethyl)phenyl)ethyl)isoindoline-5-carboxamide] | < 0.1 | * (a Y value (shown as *) of 0<Y≤20%) |
| C[C@H](NC(=O)c1ccc2c(c1)CN(C1CCC(=O)NC1=O)C2=O)c1cccnc1 (stereo partly shown) [Example 19] | 0.1 to 0.5 | ** (a Y value (shown as**) of 20%<Y≤35%) |
| O=C1CCC(N2Cc3cc(C(=O)N[C@H](c4ccc(N5CCOCC5)cc4)C(F)(F)F)ccc3C2=O)C(=O)N1 (stereo partly drawn) [Example 204, 2-(2,6-dioxopiperidin-3-yl)-1-oxo-N-((R)-2,2,2-trifluoro-1-(4-morpholinophenyl)ethyl)isoindoline-5-carboxamide] | < 0.1 | * (a Y value (shown as *) of 0<Y≤20%) |
| CC(C)(CO)[C@@H](NC(=O)c1ccc2c(c1)CN(C1CCC(=O)NC1=O)C2=O)C(F)(F)F (stereo partly drawn) [Example 95, 2-(2,6-dioxopiperidin-3-yl)-1-oxo-N-((R)-1,1,1-trifluoro-4-hydroxy-3,3-dimethylbutan-2-yl)isoindoline-5-carboxamide] | 0.5 to 1 | ** (a Y value (shown as**) of 20%<Y≤35%) |
| N#Cc1ccc([C@@H](NC(=O)c2ccc3c(c2)CN(C2CCC(=O)NC2=O)C3=O)C(F)(F)F)cc1 (stereo partly drawn) [Example 63, N-((R)-1-(4-cyanophenyl)-2,2,2-trifluoroethyl)-2-(2,6-dioxopiperidin-3-yl)-1-oxoisoindoline-5-carboxamide] | < 0.1 | * (a Y value (shown as *) of 0<Y≤20%) |

— patent US11306101B2 (Celgene Corporation, priority 2019, dated 2022)
